Data: patent publication US9902728B2, “Pyrrolo and pyrazolopyrimidines as ubiquitin-specific protease 7 inhibitors” (Forma Therapeutics, Inc., priority 2014, dated 2018)

The compounds below were run against T1, USP7 (Homo sapiens, UniProt Q93009) (assay: USP7 Assay A (Ubitquin-Rhodamine 110 Assay)). Details: USP7 activity in USP7 assay A and B (table does not say which assay per compound); read-out: USP7_IC50.
T1 construct: USP7, construct USP7 (208-1102) 6*His, Viva Biotech; 6xHis (C); purchased Viva Biotech
T1 sequence (Q93009 208-1102): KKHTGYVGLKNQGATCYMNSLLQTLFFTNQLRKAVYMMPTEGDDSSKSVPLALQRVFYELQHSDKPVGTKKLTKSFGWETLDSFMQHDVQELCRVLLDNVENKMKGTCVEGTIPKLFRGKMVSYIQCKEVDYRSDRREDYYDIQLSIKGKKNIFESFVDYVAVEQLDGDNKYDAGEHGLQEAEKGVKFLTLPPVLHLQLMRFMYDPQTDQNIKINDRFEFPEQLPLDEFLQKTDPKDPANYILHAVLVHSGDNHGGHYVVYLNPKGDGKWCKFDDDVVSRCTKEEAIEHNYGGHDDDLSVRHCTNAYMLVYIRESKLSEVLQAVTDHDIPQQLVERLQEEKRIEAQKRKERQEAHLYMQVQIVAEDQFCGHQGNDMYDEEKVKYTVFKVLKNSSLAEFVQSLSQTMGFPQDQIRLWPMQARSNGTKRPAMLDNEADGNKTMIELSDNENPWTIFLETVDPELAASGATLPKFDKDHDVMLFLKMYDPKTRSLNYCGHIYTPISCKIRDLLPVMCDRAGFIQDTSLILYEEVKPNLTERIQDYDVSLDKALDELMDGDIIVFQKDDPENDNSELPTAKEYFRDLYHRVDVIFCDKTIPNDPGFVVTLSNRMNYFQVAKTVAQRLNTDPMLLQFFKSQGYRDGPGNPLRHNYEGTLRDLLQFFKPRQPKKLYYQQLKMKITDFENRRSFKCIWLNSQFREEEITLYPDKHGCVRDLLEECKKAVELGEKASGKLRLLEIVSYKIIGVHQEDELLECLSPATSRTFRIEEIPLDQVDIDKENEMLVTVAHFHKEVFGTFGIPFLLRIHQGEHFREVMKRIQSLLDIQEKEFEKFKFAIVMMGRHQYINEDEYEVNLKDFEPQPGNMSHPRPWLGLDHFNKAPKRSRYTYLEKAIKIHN
Assay type: biochemical
Procedure, shortened: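 Ub-Rh110 cleavage in 20 mM Tris-HCl pH 8.0 with 1 mM GSH, 0.03% BGG, 0.01% Triton X-100; compound preincubated with enzyme 30 min before substrate.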

Row | SMILES | IC50
1 | Cc1ncc(C(=O)N2CCC(O)(Cn3cnc4c(cnn4-c4ccc(OCC5(F)CCC5)cc4)c3=O)CC2)o1 [Compound I-1135] | < 200 nM
2 | CC(=O)N1CC2CC1CN2c1ccc(-n2ncc3c(=O)n(CC4(O)CCN(C(=O)C5(C)CC5)CC4)cnc32)cc1 (centres unmarked) [Compound I-1749] | 200 to 1000 nM
3 | CC1(C(=O)N2CCC(O)(Cn3cnc4c(cnn4-c4ccc(N5CCC(F)(F)CC5)cc4)c3=O)CC2)CC1 [Compound I-1728] | 200 to 1000 nM
4 | O=C(c1cnc(C2CC2)o1)N1CCC(O)(Cn2cnc3c(cnn3-c3ccc(-n4cc(Cl)cn4)cc3)c2=O)CC1 [Compound I-1686] | < 200 nM
5 | CN1CC2CCC(C1)N2c1ccc(C(=O)N2CCC(O)(Cn3cnc4c(cnn4-c4ccc(F)cc4)c3=O)CC2)cc1 [Compound I-1681] | 1000 to 10000 nM
6 | O=C(C[C@@H](C(F)F)n1cccn1)N1CCC(O)(Cn2cnc3c(cnn3-c3ccc(Cl)cc3)c2=O)CC1 [Compound I-1132] | 200 to 1000 nM
7 | Cc1cncc(OC2CCC(C(=O)N3CCC(O)(Cn4cnc5c(cnn5-c5ccc(F)cc5)c4=O)CC3)CC2)n1 (centres unmarked) [Compound I-1015] | 200 to 1000 nM
8 | CC1(C(=O)N2CCC(O)(Cn3cnc4c(cnn4-c4ccc(N5CC(F)C5)cc4)c3=O)CC2)CC1 [Compound I-1679] | 200 to 1000 nM
9 | Cn1ccc(OC2CCC(C(=O)N3CCC(O)(Cn4cnc5c(cnn5-c5ccc(F)cc5)c4=O)CC3)CC2)n1 (centres unmarked) [Compound I-753] | 200 to 1000 nM
10 | CC1(C(=O)N2CCC(O)(Cn3cnc4c(cnn4-c4ccc(N5CCC6(CC5)CC(F)(F)C6)cc4)c3=O)CC2)CC1 [Compound I-490] | 200 to 1000 nM
11 | COC1CCC(Oc2ccc(-n3ncc4c(=O)n(CC5(O)CCN(C(=O)C6(C)CC6)CC5)cnc43)cc2)CC1 (single isomer, unassigned) [Compounds I-1116] | 200 to 1000 nM
12 | Cc1ccc(-n2ncc3c(=O)n(CC4(O)CCN(C(=O)C5CC(Oc6ccccn6)C5)CC4)cnc32)cc1 (centres unmarked) [Compound I-917] | 1000 to 10000 nM
13 | C[C@@H](CC(=O)N1CCC(O)(Cn2cnc3c(cnn3-c3ccc(N4CC[C@@](C)(O)C4)cc3)c2=O)CC1)n1cccn1 [Compound I-1052] | 200 to 1000 nM
14 | CC1(O)CCN(c2ccc(-n3ncc4c(=O)n(CC5(O)CCN(C(=O)C6CC6)CC5)cnc43)cc2)C1 (centres unmarked) [Compound I-1657] | 1000 to 10000 nM
15 | C[C@@]1(O)CCN(c2ccc(-n3ncc4c(=O)n(CC5(O)CCN(C(=O)C6CCCCC6)CC5)cnc43)cc2)C1 [Compound I-783] | 200 to 1000 nM
16 | Cc1cc(N[C@H]2CC[C@@H](C(=O)N3CCC(O)(Cn4cnc5c(cnn5-c5ccc(F)cc5)c4=O)CC3)CC2)no1 [Compound I-807] | 1000 to 10000 nM
17 | O=C(C1CCC(Oc2ccncc2)CC1)N1CCC(O)(Cn2cnc3c(cnn3-c3ccc(F)cc3)c2=O)CC1 (centres unmarked) [Compound I-751] | 1000 to 10000 nM
18 | O=C(C1CC1)N1CCC(O)(Cn2cnc3c(cnn3-c3ccc(-c4cncc(C(F)(F)F)c4)cc3)c2=O)CC1 [Compound I-1737] | 1000 to 10000 nM
19 | O=C(c1ccc(F)cc1)N1CCC(O)(Cn2cnc3c(cnn3-c3ccc(N4CCn5ncnc5C4)cc3)c2=O)CC1 [Compound I-1178] | 1000 to 10000 nM
20 | C[C@H](c1ccccc1)c1nn(C)cc1C(=O)N1CCC(O)(Cn2cnc3c(cnn3-c3ccc(F)cc3)c2=O)CC1 [Compound I-1162] | < 200 nM
21 | O=C(C1CC1)N1CCC(O)(Cn2cnc3c(cnn3-c3ccc(-n4cc(N5CCOCC5)cn4)cc3)c2=O)CC1 [Compound I-819] | 200 to 1000 nM
22 | Cn1nccc1OC1CCC(C(=O)N2CCC(O)(Cn3cnc4c(cnn4-c4ccc(F)cc4)c3=O)CC2)CC1 (centres unmarked) [Compound I-1114] | 1000 to 10000 nM
23 | CN1CCN(c2cnn(-c3ccc(-n4ncc5c(=O)n(CC6(O)CCN(C(=O)C7CC7)CC6)cnc54)cc3)c2)CC1 [Compound I-975, 5-[(1-cyclopropanecarbonyl-4-hydroxypiperidin-4-yl)methyl]-1-{4-[4-(4-methylpiperazin-1-yl)-1H-pyrazol-1-yl]phenyl}-1H,4H,5H-pyrazolo[3,4-d]pyrimidin-4-one] | 200 to 1000 nM
24 | O=C(c1cnc(C2CC2)o1)N1CCC(O)(Cn2cnc3c(cnn3-c3ccc(C4CCC4)cc3)c2=O)CC1 [Compound I-847] | 200 to 1000 nM
25 | C[C@H]1CN(c2cccc(-n3ncc4c(=O)n(CC5(O)CCN(C(=O)C6(C)CC6)CC5)cnc43)c2)CCN1C [Compound I-1646] | < 200 nM
26 | CN1CC[C@@H](Oc2ccc(-c3ccc(-n4ncc5c(=O)n(CC6(O)CCN(C(=O)C7CC7)CC6)cnc54)cc3)cc2)C1 [Compound I-679] | < 200 nM
27 | C[C@@H]1CN(c2cccc(-n3ncc4c(=O)n(CC5(O)CCN(C(=O)C6(C)CC6)CC5)cnc43)c2)CCN1C [Compound I-1689] | < 200 nM

Same assay, conditions: USP7 assay A and B (table does not say which assay per compound); Ubiquitin-Rhodamine 110 substrate; read-out: USP7_IC50

Row | SMILES | IC50
28 | CC(CC(=O)N1CCC(O)(Cn2cnc3c(cnn3C)c2=O)CC1)c1ccccc1 (centres unmarked) [Compound I-1, 5-((4-Hydroxy-1-(3-phenylbutanoyl)piperidin-4-yl)methyl)-1-methyl-1,5-dihydro-4H-pyrazolo[3,4-d]pyrimidin-4-one] | 200 to 1000 nM

Same assay, conditions: USP7 assay A and B (table does not say which assay per compound); read-out: USP7_IC50

Row | SMILES | IC50
29 | CCc1ccc(CN(C)Cc2ccc(-n3ncc4c(=O)n(CC5(O)CCN(C(=O)C6CC6)CC5)cnc43)cc2)cn1 [Compound I-440] | 1000 to 10000 nM
30 | Cn1cnc(C(=O)N2CCC(O)(Cn3cnc4c(cnn4-c4ccccc4)c3=O)CC2)c1 [Compound I-155] | 1000 to 10000 nM
31 | Cc1ncoc1C(=O)N1CCC(O)(Cn2cnc3c(cnn3-c3ccc(F)cc3)c2=O)CC1 [Compound I-312] | 1000 to 10000 nM
32 | C[S+]([O-])c1ccc(-n2ncc3c(=O)n(CC4(O)CCN(C(=O)c5ccc(F)cc5)CC4)cnc32)cc1 (single isomer, unassigned) [Compound I-995, 5-((1-(4-fluorobenzoyl)-4-hydroxypiperidin-4-yl)methyl)-1-(4-(methylsulfinyl)phenyl)-1H-pyrazolo[3,4-d]pyrimidin-4(5H)-one] | 1000 to 10000 nM
33 | O=C(C1CC1)N1CCC(O)(Cn2cnc3c(cnn3-c3ccc(CN4CCCCC4)cc3)c2=O)CC1 [Compound I-431] | 1000 to 10000 nM
34 | Cc1ccc(C(=O)N2CCC(O)(Cn3cnc4c(cnn4-c4ccccc4)c3=O)CC2)cc1C [Compound I-200] | 1000 to 10000 nM
35 | O=C(C[C@H](c1ccccc1)C(F)(F)F)N1CCC(O)(Cn2cnc3c(cnn3-c3ccccc3)c2=O)CC1 [Compound I-141] | 1000 to 10000 nM
36 | Cc1cc(C)cc(C(=O)N2CCC(O)(Cn3cnc4c(cnn4-c4ccccc4)c3=O)CC2)c1 [Compound I-197] | 1000 to 10000 nM
37 | O=C(Nc1ccccc1)c1ccc(-n2ncc3c(=O)n(CC4(O)CCN(C(=O)C5CC5)CC4)cnc32)cc1 [Compound I-1490] | 1000 to 10000 nM
38 | C[C@@H](CC(=O)N1CCC(O)(Cn2cnc3c(cnn3-c3ccc(F)cc3)c2=O)CC1)n1ncc2c1CCC2 [Compound I-521] | > 10000 nM
39 | O=C(c1ccccc1)N1CCC(O)(Cn2cnc3c(cnn3-c3ccc(-c4ccccc4)c(CO)c3)c2=O)CC1 [Compound I-665] | 1000 to 10000 nM
40 | O=C(C1CC1)N1CCC(O)(Cn2cnc3c(cnn3-c3cccc(N4CCC(c5ccccc5)CC4)c3)c2=O)CC1 [Compound I-1205] | 1000 to 10000 nM
41 | CC(C)N1CCC(c2ccc(-n3ncc4c(=O)n(CC5(O)CCN(C(=O)N(C)C)CC5)cnc43)cc2)CC1 [Compound I-992] | 1000 to 10000 nM
42 | Cc1ccc(-n2ncc3c(=O)n(CC4(O)CCN(C(=O)C[C@H](c5ccccc5)C(F)(F)F)CC4)cnc32)cc1 [Compound I-144] | 1000 to 10000 nM
43 | O=C(C1CC1)N1CCC(O)(Cn2cnc3c(cnn3-c3ccc(-c4cc(F)ccc4CO)cc3)c2=O)CC1 [Compound I-390] | 1000 to 10000 nM
44 | C[C@@H](CC(=O)N1CCC(O)(Cn2cnc3c(cnn3-c3ccccc3)c2=O)CC1)n1cccc1 [Compound I-178] | 1000 to 10000 nM

Row | SMILES | IC50
45 | CC(O)(c1ccc(C(=O)N2CCC(O)(Cn3cnc4c(cnn4-c4ccc(F)cc4)c3=O)CC2)cc1)C(F)(F)F (centres unmarked) [Compound I-526] | 1000 to 10000 nM
46 | COc1ccc(C(=O)N2CCC(O)(C(C)n3cnc4c(cnn4-c4ccc(OC)cc4)c3=O)CC2)cc1 (centres unmarked) [Compound I-625] | 1000 to 10000 nM
47 | N#Cc1ccc(Nc2ccc(-n3ncc4c(=O)n(CC5(O)CCN(C(=O)C6CC6)CC5)cnc43)cc2)nc1 [Compound I-1277] | 1000 to 10000 nM
48 | CC(CC(=O)N1CCC(O)(Cn2cnc3c(cnn3C)c2=O)CC1)c1ccc(F)cc1 (centres unmarked) [Compound I-78] | 200 to 1000 nM
49 | Cc1ncc(C(=O)N2CCC(O)(Cn3cnc4c(cnn4-c4ccc(F)cc4)c3=O)CC2)o1 [Compound I-531] | 1000 to 10000 nM
50 | O=C(C1CC1)N1CCC(O)(Cn2cnc3c(cnn3-c3cccc(-c4cnc(N5CCOCC5)nc4)c3)c2=O)CC1 [Compounds I-401] | 1000 to 10000 nM
51 | CN(C)C(=O)N1CCC(O)(Cn2cnc3c(cnn3-c3ccc(N4CCC5(CCNCC5)CC4)cc3)c2=O)CC1 [Compound I-508] | 200 to 1000 nM
52 | CN(C)C(=O)N1CCC(O)(Cn2cnc3c(cnn3-c3ccc(N4CCC(F)(F)CC4)cc3)c2=O)CC1 [Compound I-1461] | 1000 to 10000 nM
53 | C[C@@H](CC(=O)N1CCC(O)(Cn2cnc3c(cnn3-c3ccc(F)cc3)c2=O)CC1)n1cc2c(n1)CCC2 (single isomer, unassigned) [Compound I-519] | > 10000 nM
54 | CN(C)C(=O)Nc1ccc(-n2ncc3c(=O)n(CC4(O)CCN(C(=O)C5CC5)CC4)cnc32)cc1 [Compound I-492] | 1000 to 10000 nM
55 | Cc1cccc(C(=O)N2CCC(O)(Cn3cnc4c(cnn4-c4ccccc4)c3=O)CC2)c1F [Compound I-206] | 1000 to 10000 nM
56 | C[C@H](CC(=O)N1CCC(O)(Cn2cnc3c(cnn3-c3cccc(C(F)(F)F)c3)c2=O)CC1)c1ccccc1 [Compound I-67] | < 200 nM
57 | C[C@]1(O)CCN(c2cc(-n3ncc4c(=O)n(CC5(O)CCN(C(=O)C6CC6)CC5)cnc43)ccc2F)C1 [Compound I-637] | 200 to 1000 nM
58 | O=C(N[C@H]1CNCC1F)N1CCC(O)(Cn2cnc3c(cnn3-c3ccc(-c4ccccc4)cc3)c2=O)CC1 (some centres unmarked) [Compound I-664] | 1000 to 10000 nM
59 | O=C(C1CC1)N1CCC(O)(Cn2cnc3c(cnn3-c3ccc(N4CCCC4)cc3)c2=O)CC1 [Compound I-1199] | 1000 to 10000 nM
